Assay results from ChEMBL document CHEMBL1201862, “PubChem BioAssay data set” (2004).
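96-well plates; 48 h exposure; 5 concentrations. Endpoints by linear interpolation between flanking doses. Not reached: highest tested concentration assigned. GI50 = concentration required for 50% inhibition of growth.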 Calls of active or inactive are those of the source. No stated cut-off is given here; in the data, active = GI50 up to about 1.1 µM and inactive = higher.

Assays:
Experiment in all cases: inhibition of tumour cell growth, NCI panel, 48 h
[1] = tested on: OVCAR-5
[2] = tested on: CCRF-CEM
[3] = tested on: NCI/ADR-RES
[4] = tested on: COLO 205
[5] = tested on: SNB-19
[6] = tested on: DU-145
[7] = tested on: SF-539
[8] = tested on: MDA-N
[9] = tested on: T47D
[10] = tested on: PC-3
[11] = tested on: SK-MEL-5
[12] = tested on: HT-29
[13] = tested on: K562
[14] = tested on: KM12
[15] = tested on: U-251
[16] = tested on: SW-620
[17] = tested on: MDA-MB-435
[18] = tested on: HOP-92

Measured: GI50

CCOC(=O)c1c(N=C(S)Nc2ccccc2)sc2c1CCN(C)C2
inactive: [1] > 100 µM | [2] > 100 µM | [3] > 100 µM | [4] > 100 µM | [5] > 100 µM | [6] > 100 µM | [7] > 100 µM | [8] > 100 µM | [9] > 100 µM | [10] > 100 µM | [11] > 100 µM | [12] > 100 µM | [13] > 100 µM | [14] > 100 µM

OCCCC(O)(c1ccccc1)c1ccccc1
inactive: [1] > 100 µM | [15] > 100 µM | [2] > 100 µM | [16] > 100 µM | [3] > 100 µM | [5] > 100 µM | [7] > 100 µM | [10] > 100 µM | [11] > 100 µM | [12] > 100 µM | [17] > 100 µM | [13] > 100 µM | [14] > 100 µM

CCOC(=O)c1c(C)n(-c2ccc(C)cc2)c(=O)c2ccccc2c(=O)c2c(=O)ccc(=O)c1=2
inactive: [1] 28.6 µM | [18] 16.2 µM | [15] 19.4 µM | [2] 6.34 µM | [16] 25.6 µM | [3] 18.5 µM | [4] 15.2 µM | [5] 32.2 µM | [6] 20 µM | [7] 21.9 µM | [9] 20 µM | [10] 17.1 µM | [11] 14.7 µM | [12] 12.2 µM | [17] 15.3 µM | [13] 15.2 µM | [14] 13.6 µM

COc1ccc(/C=C2\C[C@H]3[C@@H]4CCC5=C/C(=N/O)CC[C@]5(C)[C@H]4CC[C@]3(C)\C2=N\O)cc1
inactive: [1] 36.3 µM | [18] 17.3 µM | [15] 25.3 µM | [16] 36.9 µM | [3] 8.18 µM | [4] 14.5 µM | [5] 20 µM | [6] 13.4 µM | [8] 15.6 µM | [9] 7.98 µM | [10] 8.17 µM | [11] 11 µM | [12] 6.85 µM | [17] 26.5 µM | [13] 6.47 µM | [14] 12.2 µM

CCOC(=O)c1c(N)sc2c1C(C(=O)OCC)CCC2 (centres undefined)
inactive: [1] > 100 µM | [18] > 100 µM | [15] > 100 µM | [2] > 100 µM | [16] > 100 µM | [4] > 100 µM | [5] > 100 µM | [8] > 100 µM | [9] 66.5 µM | [10] 68.1 µM | [11] 98.2 µM | [12] > 100 µM | [13] 76.6 µM | [14] > 100 µM

CCC(=O)CC(=O)CCC(=O)Nc1cc(C)ccc1C
inactive: [18] > 100 µM | [15] > 100 µM | [2] > 100 µM | [16] > 100 µM | [5] > 100 µM | [7] > 100 µM | [11] > 100 µM | [12] > 100 µM | [13] > 100 µM | [14] > 100 µM

CC1CCc2sc3nc(S)n(C)c(=O)c3c2C1 (centres undefined)
inactive: [1] 73.1 µM | [18] 17.7 µM | [15] 41.8 µM | [16] 39.2 µM | [3] 36.1 µM | [4] 67.5 µM | [5] 33.8 µM | [6] 50.8 µM | [8] 44 µM | [9] 48.5 µM | [10] 25.5 µM | [11] 35.1 µM | [12] 40 µM | [17] 50.5 µM | [13] 42.2 µM | [14] 42.8 µM

COC(=O)C1=C(\c2ccccc2)c2ccccc2C(=O)N(C2CCCCC2)/C=C\1
inactive: [1] 72.9 µM | [18] 14.9 µM | [15] 21 µM | [2] 12 µM | [16] 28.6 µM | [3] 26.5 µM | [4] 14.5 µM | [5] 29 µM | [6] 60 µM | [7] 24 µM | [8] 29.5 µM | [10] 10.5 µM | [11] 11.5 µM | [12] 21.9 µM | [17] 17.9 µM | [13] 4.59 µM | [14] 13.9 µM

FC(F)(F)c1ccc(Cc2nc3cc4ccccc4cc3[nH]2)cc1
inactive: [1] > 100 µM | [18] 2.11 µM | [15] 71.3 µM | [2] > 100 µM | [16] > 100 µM | [3] > 100 µM | [4] > 100 µM | [5] 45.7 µM | [6] > 100 µM | [7] > 100 µM | [9] 39.9 µM | [10] > 100 µM | [11] 54.6 µM | [12] 91.8 µM | [17] > 100 µM | [13] 32.1 µM | [14] > 100 µM
